# Experiments:
# IRE1α = target: T1, IRE1α (Mus musculus, UniProt Q9EQY0); experiment: IRE1α autophosphorylation by Phos-tag SDS-PAGE in INS-1 cells expressing IRE1α under Dox control; format: cell-based, rat; conditions: various concentrations, 5 ng/mL Dox
# T1 construct: expressed in transfected cells
# Procedure: We next tested PAIR1 and KIRA9 in an INS-1 rat insulinoma stable cell line where IRE1α activation can be achieved through conditional overexpression of a mouse IRE1α transgene (Han et al., 2009).
# Treatment Conditions for Phostag Gels
# INS-1 or IRE1α-overexpressing isogenic INS-1 cells were plated onto a 24-well Poly-D-Lysine coated tissue culture plate and grown for 48 hrs. Inhibitor or DMSO were added to the media and incubated for 1 hour at 37° C. with 5% CO2 prior to addition of ER stress agents. […] Cells were lysed directly into SDS loading buffer (50 mM Tris, 100 mM DTT, 2% SDS (w/v), 10% glycerol (v/v), and 0.1% bromophenol blue (w/v), pH 6.8) and boiled for five minutes prior to gel loading.
# Phostag Acrylamide Gel Procedure
# A phostag acrylamide gel recipe used to resolve phosphorylation of IRE1α has been previously established and this recipe was followed verbatim for this study.^91 Resolving gels were allowed to solidify (˜1.5 hr) before adding the stacking gel and comb and allowed to solidify (˜1 hr). Gels were run using Tris-Glycine-SDS running buffer (25 mM Tris, 192 mM glycine, 0.1% SDS, pH 8.3) at 100 V for 3-3.5 hours. After the gels have ran, they were transferred onto nitrocellulose paper via rapid transfer using a Transblot Turbo and premade transfer packs. Gels were transferred at 25 V, 2.5 A for 15 minutes. […]
# mouse splenocytes = experiment: LPS-induced differentiation of mouse splenocytes into plasma cells (flow cytometry, IgM ELISA); format: cell-based; conditions: 1 μg/mL LPS, three days; for IgM secretion / plasma cell (CD138+) differentiation: 20 μM-1.25 μM
# Procedure: Therefore, we sought to compare the sensitivity of this process to both KIRAs and PAIRs. To this end, we assessed how KIRA8, KIRA9, and PAIR1 affected the differentiation of lipopolysaccharide (LPS)-treated mouse splenocytes into antibody-secreting plasma cells. Total live number of CD19+ B-cells were assessed and plasma cells were quantified on the basis of B220 downregulation and CD138 expression by flow cytometry (FIGS. 6A-6C, FIG. 24). Concomitantly, secreted IgM was measured in the cell culture supernatants by ELISA (FIG. 6C).
# Splenocyte Isolation and Differentiation
# Red blood cells were lysed with ammonium chloride potassium buffer. Splenocytes were plated at 2.5×10^5 cells/well in a 96-well round bottom plate in complete media. The splenocytes were treated with or without 1 μg/ml LPS 026:b6 (Sigma). […] The splenocytes were incubated for three days in a 37° C., 5% CO2 humidified chamber before collection and staining for flow cytometry.
# Cells from the plasma cell assay were collected in a 96-well plate and washed with PBS followed by staining with LIVE/DEAD Fixable Near-IR Dead Cell Stain kit (Invitrogen). Reagent was reconstituted as per manufacturer's instructions, diluted 1:1000 in PBS, and cells were stained in 100 μL on ice for 20 minutes. The cells were then washed with FACS buffer, PBS (Corning), 2 mM EDTA and 2% heat inactivated fetal bovine serum (Omega Scientific). The cells were then stained with 50 μL antibody cocktail consisting of anti-CD19 (BioLegend), anti-CD45R (BD Pharmingen), and anti-CD138 (BioLegend) in FACS buffer on ice for 15 minutes. Cells were resuspended in FACS buffer and combined with an equal volume of 4% paraformaldehyde with 5000 Countbright Absolute Counting Beads (Thermofisher). Stained cells were analyzed on a Fortessa (Becton Dickinson). Data analysis was performed using FlowJo (v10) software (Treestar Inc.).
# Media supernatants from the in vitro plasma cell differentiation assay were measured for secreted IgM by ELISA. […] Wash buffer (PBS with 0.05% Tween-20 (v/v)) was used for all washing steps and blocked with PBS-BB (PBS without Ca^2+/Mg^2+, 1% BSA (w/v), 0.05% Tween-20 (v/v)). Supernatants from LPS stimulated samples were diluted (1:100) and media only samples were diluted (1:10) in PBS-BB. […] ELISA plates were developed with TMB (Sigma) and stopped with 1N sulfuric acid. Absorbance was measured at 450 nm using spectrophotometer (Spectramax M5, Molecular Devices). Sample IgM concentration values were calculated with SoftMaxPro software.
# [1] = system: INS-1 cells expressing IRE1α under Dox control; experiment: Apoptosis in IRE1α-overexpressing INS-1 cells (cleaved caspase 3 immunoblot, Annexin V staining); format: cell-based, rat; conditions: 20 μM, 5 ng/mL Dox
# Procedure: Western Blotting and Antibodies
# For protein analysis, cells were lysed into modified RIPA buffer (50 mM Tris, 150 mM NaCl, 10 mM NaF, 1% NP40 (v/v), 0.25% sodium deoxycholate (w/v), 5% glycerol (v/v), pH 7.8) containing protease inhibitor (Pierce Protease Inhibitor Tablets and 1 mM PMSF) and phosphatase inhibitor (Phosphatase inhibitor cocktail 2 and 3, Sigma Aldrich) prior to gel loading. Western blots were performed using Any kD™ Mini-PROTEAN® TGX™ Precast protein gels (BioRad). Gels were ran using Tris-Glycine running buffer (25 mM Tris pH 8.6, 192 mM glycine, 0.1% SDS (w/v)) at 180 V. Gels were transferred to nitrocellulose paper using the TransBlot Turbo System (BioRad) at 25 V, 2.5 A for 15 minutes. Nitrocellulose blots were blocked for 30 minutes at room temperature with Odyssey blocking buffer (Li-Cor). Primary antibodies were diluted into blocking buffer and incubated over night at 4° C. Blots were washed 2× with TBST (20 mM Tris pH 7.5, 150 mM NaCl, 0.1% Tween-20) and incubated with near-infrared-dye-conjugated secondary antibodies (Li-Cor) for 1 hour at room temperature. Blots were imaged using a Li-Cor Odyssey IR Imager and quantitated using ImageStudio. The following primary antibodies were used in this study: rabbit anti-IRE1α mAb #14C10 (Cell Signaling, no. 3294), mouse anti-FLAG (DYKDDDDK (SEQ ID NO:24) mAb (Sigma Aldrich, no. F3165), rabbit anti-spliced XBP1 (Cell Signaling, no. 12782), rabbit anti-caspase 3 (Cell Signaling, no. 9662), rabbit anti-cleaved caspase 3 (Cell Signaling, no. 9661), mouse anti-proinsulin (Santa Cruz Biotechnology, no. sc-9168), and rabbit anti-GAPDH (Santa Cruz Biotechnology, no. sc-25778).
# For assaying apoptosis by Annexin V staining, cells were plated in 12-well plates overnight. Cells were then treated with various reagents for indicated time periods. On the day of flow cytometry analysis, cells were trypsinized and washed in PBS and resuspended in Annexin V binding buffer with Annexin-V FITC (BD Pharmingen™). Flow cytometry was performed on a Becton Dickinson LSRII flow cytometer.
# T1 sequence (Q9EQY0 21-977): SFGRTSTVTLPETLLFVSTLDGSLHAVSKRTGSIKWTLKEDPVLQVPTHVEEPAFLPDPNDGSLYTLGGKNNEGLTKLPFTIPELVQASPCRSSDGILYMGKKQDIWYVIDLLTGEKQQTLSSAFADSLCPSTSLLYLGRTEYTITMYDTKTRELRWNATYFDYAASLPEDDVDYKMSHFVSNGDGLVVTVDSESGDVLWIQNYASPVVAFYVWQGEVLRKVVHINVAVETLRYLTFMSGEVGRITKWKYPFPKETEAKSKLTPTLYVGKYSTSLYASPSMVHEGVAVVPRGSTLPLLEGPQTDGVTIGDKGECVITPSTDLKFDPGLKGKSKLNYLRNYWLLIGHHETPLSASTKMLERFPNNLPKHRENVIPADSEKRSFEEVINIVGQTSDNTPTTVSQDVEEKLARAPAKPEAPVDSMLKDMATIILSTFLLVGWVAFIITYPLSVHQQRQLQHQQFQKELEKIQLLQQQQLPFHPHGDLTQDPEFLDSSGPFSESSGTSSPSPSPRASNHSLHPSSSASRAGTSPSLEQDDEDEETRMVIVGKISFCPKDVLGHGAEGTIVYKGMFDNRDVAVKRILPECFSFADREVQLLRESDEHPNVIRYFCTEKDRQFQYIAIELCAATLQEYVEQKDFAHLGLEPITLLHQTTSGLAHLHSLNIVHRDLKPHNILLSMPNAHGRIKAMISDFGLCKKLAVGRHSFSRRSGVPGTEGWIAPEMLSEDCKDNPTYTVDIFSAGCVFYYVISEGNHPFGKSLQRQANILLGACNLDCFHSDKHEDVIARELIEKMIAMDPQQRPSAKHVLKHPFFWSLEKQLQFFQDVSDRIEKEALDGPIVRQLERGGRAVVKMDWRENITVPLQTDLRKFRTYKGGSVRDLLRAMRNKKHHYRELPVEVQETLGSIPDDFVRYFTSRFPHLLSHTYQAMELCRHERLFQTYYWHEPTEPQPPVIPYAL
SMILES,IRE1α autophosphorylation (IRE1α),"overall number of B cells (CD19+), general toxicity (mouse splenocytes)",IgM secretion (mouse splenocytes),plasma cell (CD138+) differentiation (mouse splenocytes),Annexin-V positivity (mitochondrial apoptosis assay) [1],generation of cleaved caspase 3 [1]
"O=S(=O)(CCC(F)(F)F)Nc1ccc(Oc2ncccc2-c2ccnc(NC3CCCNC3)n2)c2ccccc12 (stereo not drawn) [KIRA9, 3,3,3-trifluoro-N-(4-(3-(2-(piperidin-3-ylamino)pyrimidin-4-yl)pyridin-2-yloxy)naphthalen-1-yl)propane-1-sulfonamide]",equivalently block the autophosphorylation,neither PAIR1 nor KIRA9 reduced the overall number of B cells,reductions in both plasma cell differentiation and IgM secretion in a dose-dependent manner,reductions in both plasma cell differentiation and IgM secretion in a dose-dependent manner,significant cytoprotective efficacy,markedly reduced
"O=S(=O)(CC(F)(F)F)Nc1ccc(Oc2ncccc2-c2ccnc(N[C@H]3CCCNC3)n2)c2ccccc12 (stereo in doubt) [PAIR1, 2,2,2-trifluoro-N-(4-(3-(2-(piperidin-3-ylamino)pyrimidin-4-yl)pyridin-2-yloxy)naphthalen-1-yl)ethanesulfonamide]",equivalently block the autophosphorylation,neither PAIR1 nor KIRA9 reduced the overall number of B cells,more modest inhibition,more modest inhibition,significant cytoprotective efficacy,markedly reduced

# Source: patent US11884649B2, “IRE1α inhibitors and uses thereof” (The Regents of the University of California, priority 2020, dated 2024)
